Results published in PubChem BioAssay AID248 (DTP/NCI, 2004).
“And” between values parts separate entries of the source, which are not always exact repeats. Identical values can stand only once. Toxic doses and inconclusive results are not listed. Cut-off read from the data, not from the text of the source: active = T/C of 150% or more; inactive = T/C below 125%.

Tested on: L1210 leukemia ip in BDF1 mice, survival T/C
Assay: NCI In Vivo Anticancer Drug Screen. Data for tumor model L1210 Leukemia (intraperitoneal) in B6D2F1 (BDF1) mice
Conditions: endpoint: mean survival time, vehicle: Klucel (hydroxypropylcellulose) (HPC), higher = longer survival
In short: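 Tumor was transplanted into mice, which were then dosed with test compound or vehicle alone. Survival was recorded for each group, and the treated figure was expressed relative to the control figure.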

Measured: T/C

c1ccc2c(c1)C(=NOc1nc3ccccc3c3ccccc13)c1ccccc1-2
inactive: dose: 100.0 mg/kg/injection, schedule: Q01DX001 (ip) 96 % of control | dose: 100.0 mg/kg/injection, schedule: Q04DX003 (ip) 93 % of control | dose: 200.0 mg/kg/injection, schedule: Q01DX001 (ip) 91 % of control | dose: 200.0 mg/kg/injection, schedule: Q04DX003 (ip) 95 % of control | dose: 400.0 mg/kg/injection, schedule: Q01DX001 (ip) 86 % of control | dose: 400.0 mg/kg/injection, schedule: Q04DX003 (ip) 99 % of control

C#CC1(NC(=S)NC(=O)c2ccccc2)CCCCC1
inactive: dose: 25.0 mg/kg/injection, schedule: Q01DX009 (ip) 93 % of control | dose: 50.0 mg/kg/injection, schedule: Q01DX009 (ip) 94 % of control | dose: 100.0 mg/kg/injection, schedule: Q01DX009 (ip) 94 % of control and 88 % of control
